Measurements taken from patent US20250325468A1, “PEPTIDE INHIBITING FORMATION OF SNARE COMPLEX AND USE THEREOF” (MEDYTOX INC., priority 2020, published 2025).
Values joined by “and” are separate entries in the source; they are usually repeats but may differ in a detail not shown here. Equal entries are not always repeated. Where no end group is shown, it is not given here.

Legend:
[1] = test system: B16-F10 cells; assay: Raw material toxicity test: MTT analysis; assay type: cell-based, mice; conditions: FIG. 3; 12.5 μM, 25 μM and 50 μM, 48 hours
Protocol: B16-F10 cells purchased from the Korean Cell Line Bank were inoculated into 100 μL of a DMEM medium containing 10% FBS at a concentration of 1×10^4 cells/well in a 96-well plate and cultured for 48 hours. B16-F10 cells are a murine melanoma cell line derived from mice. These cells are adherent and have an epithelial morphology. Thereafter, the C2-P4 peptide was diluted in a DMEM culture medium at concentrations of 12.5 μM, 25 μM, and 50 μM to replace the medium, and the cells were cultured for 48 hours. After centrifuging the plate at 1,000 rpm for 10 minutes, the culture medium solution was removed. Each well was washed twice with PBS, and a 0.5 mg/ml MTT solution diluted in a DMEM medium was added thereto. The cells were cultured in an incubator of 37° C. and 5% CO2 for 2 hours. After centrifuging the plate at 1,000 rpm for 10 minutes, the MTT solution was removed. Each well was washed twice with PBS, and 150 μL of DMSO was added to dissolve the produced formazan. The plate was placed in a spectrometer (Spectra MAX i3), and absorbance of the sample in each well was measured at 590 nm.

[2] = Skin irritation test on artificial skin (MTT); assay type: cell-based; conditions: human, artificial skin (Neoderm-ED, Tegoscience); FIG. 4; 20 μl of 100 μg/ml peptide; 50% or greater = no irritation; read-out: cell viability
Protocol: (§1) 1×PBS and 5% SDS were evenly applied to artificial skin (Neoderm-ED) purchased from Tegoscience (South Korea) to prepare a negative control and a positive control, respectively. An experimental group was evenly coated with 20 μl of 100 μg/ml C2-P4 peptide. After allowing the samples to react at room temperature for 15 minutes, the resultants were each transferred to the wells of a 12-well culture plate and cultured in an incubator of 37° C. and 5% CO2 for 15 minutes. Once the reaction was completed, the artificial skin was washed twice with PBS and transferred to the wells of a new 12-well culture plate and cultured for 42 hours. Once the culture was completed, 2 ml of 0.3 mg/ml MTT solution was added, and the cells were cultured for 3 hours. The sample in each well of the plate was decolorized by adding 0.04 N HCl-isopropanol, and placed in the Spectra MAX i3, and absorbance of the sample in each well was measured at 580 nm.
(§2) FIG. 4 is a graph showing the results of measuring effect of C2-P4 on skin irritation. […] Here, when the cell viability of a sample was 50% or greater, the sample was determined to have no irritation.

[3] = test system: artificial skin (Neoderm-ED); assay: Skin irritation test on artificial skin (MTT); assay type: cell-based; conditions: FIG. 4; 20 μl of 100 μg/ml peptide; 50% or greater viability = no irritation
Protocol: as §1, §2

[4] = test system: MITF gene; assay: MITF gene activity by real-time PCR; assay type: cell-based, mice; conditions: Table 2; three replicates; C2-P4 10 μM, α-MSH 50 nM, 48 hours
Protocol: B16-F10 cells purchased from the Korean Cell Line Bank were inoculated into 3 mL of a DMEM medium containing 10% FBS at a concentration of 1×10^5 cells/well in a 6-well plate and cultured in an incubator of 37° C. and 5% CO2 for 24 hours to form a cell monolayer. The medium in a negative control was replaced with a DMEM medium, and the medium in peptide-treated experimental groups and α-MSH experimental groups was replaced with a medium containing 10 μM of each of the peptides and 50 nM of α-MSH, respectively, and then the cells were cultured for 48 hours. Each of the experimental groups was washed twice with PBS, the cells were obtained with trypsin-EDTA and centrifuged at 1500 rpm for 5 minutes to separate the cells. RNA was extracted from the separated cells using Trizol, and each 1,000 ng of cDNA was synthesized using reverse transcriptase. Using 100 ng of each of the synthesized cDNAs, the expression levels of GAPDH and […] were confirmed using real-time PCR. The primers used for the real-time PCR were SEQ ID NOs: 9 and 10. Alternatively, the polynucleotide sets of SEQ ID NOs: 11 and 12 were used.

Substance | cell viability compared to the negative control (scrambled peptide) [1] | cytotoxicity (MTT assay) [1] | viability at 0.5 h, 100 µg/mL [2] [%] | skin irritation [3] | MITF (real-time PCR value) [4]
RRWRRWNRFNRRRCRRRLQQTQAQVDEVVDIM [C2-P4] | similar | no cytotoxicity | ~85 | no irritation | –
α-MSH | – | – | – | – | 30.05 and 29.98 and 30.17
